The source made the active and inactive calls. The calls are words filed in the database; no cut-off is given here.

Assay [1] is filed under the species Xenopus laevis. Kind of assay: Pigment aggregation response in Xenopus laevis Melanophores at 10e-6 M of concentration; Agonist. As to conditions: filed as agonist. It is filed as functional.
The target of assay [2] is T1, Melatonin receptor (Gallus gallus, UniProt P49288+P51050+P49285). Description: Binding affinity in chicken brain membranes by using [2-125I]melatonin in a competition radioligand binding assay. It is filed as cell membranes, Membrane.
For assay [3], the species on record is Xenopus laevis. Description: Pigment aggregation response in Xenopus laevis Melanophores at 10e-8 M of concentration; Agonist response. The settings on record: filed as agonist. It is filed as functional.
The species named for assay [4] is Xenopus laevis. Description: Pigment aggregation response in Xenopus laevis Melanophores at 10e-5 M of concentration; No Agonist/antagonist response. It is filed as functional.
The species named for assay [5] is Xenopus laevis. Description: Pigment aggregation response in Xenopus laevis Melanophores at 10e-5 M of concentration; Agonist. It is filed as functional. The settings on record: filed as agonist.
For assay [6], the species on record is Xenopus laevis. Description: Pigment aggregation response in Xenopus laevis Melanophores at 10e-5 M of concentration; Antagonist. The settings on record: filed as antagonist. It is filed as functional.
Assay [7] concerns the target T1, Melatonin receptor. Description: Binding affinity in chicken brain membranes by using [2-125I]melatonin in a competition radioligand binding assay. It counts as cell membranes, Membrane.
Assay [8] is filed under the species Xenopus laevis. Description: Pigment aggregation response in Xenopus laevis Melanophores; Antagonist. The settings on record: filed as antagonist. It is filed as functional.
The species named for assay [9] is Xenopus laevis. Kind of assay: Pigment aggregation response in Xenopus laevis Melanophores at 10e-5 M of concentration; No Agonist response. It counts as functional.
For assay [10], the species on record is Xenopus laevis. Description: Pigment aggregation response in Xenopus laevis Melanophores at 10e-7 M of concentration; Agonist. It is filed as functional. As to conditions: filed as agonist.
The species entered for assay [11] is Xenopus laevis. Description: Pigment aggregation response in Xenopus laevis Melanophores at 10e-5 M of concentration; No agonist response. It is filed as functional.

Regarding `CC(=O)NCCc1c(-c2ccccc2)[nH]c2ccccc12`, in the assay filed under Xenopus laevis [1], the Response result is “Agonist”. In addition, the Ki on Melatonin receptor [2] was found to be 100 nM. Consider `CCC(=O)NCCc1c(-c2ccccc2)[nH]c2ccc(OC)cc12`, for which the Response result in the assay filed under Xenopus laevis [3] was “Agonist”. This molecule also returned a Ki on Melatonin receptor [2] of 0.0466 nM. For `COc1ccc2[nH]c(-c3ccccc3)c(CCNC(C)=O)c2c1`, the Response result in the assay listed under Xenopus laevis [3] was “Agonist”. In addition, on Melatonin receptor [2], the Ki came to 0.0596 nM. Turning to `O=C(CCc1ccccc1)NCCc1c(-c2ccccc2)[nH]c2ccccc12`, in the assay filed under Xenopus laevis [4], the Response result was “inactive”. In addition, the Ki at Melatonin receptor [2] was found to be 7000 nM.

Regarding `[N-]=[N+]=NCC(=O)NCCc1c(-c2ccccc2)[nH]c2ccccc12`, the Response entry in the assay filed under Xenopus laevis [1] is “Agonist”. For the same molecule, the Ki on Melatonin receptor [2] is recorded as 410 nM. As to `COc1ccc2[nH]c(-c3ccccc3)c(CCNC(=O)C(F)(F)F)c2c1`, the Ki on Melatonin receptor [2] was determined as 0.019 nM.

As to `COc1ccc2[nH]cc(CCNC(C)=O)c2c1`, the Response entry in the assay filed under Xenopus laevis [3] is “Agonist”.

As to `CCn1c(-c2ccccc2)c(CCNC(C)=O)c2ccccc21`, the Response entry in the assay listed under Xenopus laevis [5] is “Agonist”. At Melatonin receptor [2], this molecule had an inhibition constant Ki of 154 nM. As to `COc1ccc2[nH]c(-c3ccccc3)c(CCNC(=O)C3CC3)c2c1`, the Ki on Melatonin receptor [2] is listed as 0.3047 nM. Consider `O=C(NCCc1c(-c2ccccc2)[nH]c2ccccc12)C(F)(F)F`, for which the Response result in the assay filed under Xenopus laevis [1] is “Agonist”. In addition, the Ki on Melatonin receptor [2] worked out at 148 nM. As to `CCCC(=O)NCCc1c(-c2ccccc2)[nH]c2ccccc12`, in the assay listed under Xenopus laevis [1], the Response entry is “Agonist”. This molecule also gave a Ki at Melatonin receptor [2] of 112 nM. Take `COc1ccc2[nH]c(-c3ccccc3)c(CCNC(=O)C3CCCC3)c2c1`: in the assay filed under Xenopus laevis [1], the Response result is “Agonist”. Moreover, the Ki at Melatonin receptor [2] came to 32.8 nM.

Turning to `CC(=O)NCCc1c(-c2ccccc2)n(C)c2ccccc12`, the Response entry in the assay filed under Xenopus laevis [1] was “Agonist”. On Melatonin receptor [2], this molecule gave a Ki of 63 nM. With `COCC(CNC(=O)C1CCC1)c1c(-c2ccccc2)n(C)c2ccccc12` (stereo not given), in the assay filed under Xenopus laevis [6], the Response result was “Antagonist”. At Melatonin receptor [2], this molecule came in with a Ki of 659 nM. With `COCC(CNC(C)=O)c1c(-c2ccccc2)n(C)c2ccccc12` (stereo not given), the Response entry in the assay listed under Xenopus laevis [6] is “Antagonist”. On Melatonin receptor [7], the Ki is on record as 350 nM. On to `COc1ccc2[nH]c(-c3ccccc3)c(CCNC(=O)C3CCCCC3)c2c1`, for which the Response entry in the assay listed under Xenopus laevis [1] was “Agonist”. The Ki at Melatonin receptor [2] stood at 216 nM. Consider `O=C(NCCc1c(-c2ccccc2)[nH]c2ccccc12)C1CCC1`, for which, in the assay filed under Xenopus laevis [8], the Response entry was “Antagonist”. The Ki on Melatonin receptor [2] came out at 565 nM.

Consider `O=C(CBr)NCCc1c(-c2ccccc2)[nH]c2ccccc12`, for which the Response entry in the assay filed under Xenopus laevis [1] was “Agonist”. The molecule also displayed a Ki on Melatonin receptor [2] of 55 nM. Take `COc1ccc2[nH]c(-c3ccccc3)c(CCNC(=O)CCc3ccccc3)c2c1`: in the assay filed under Xenopus laevis [1], the Response entry is “Agonist”. Further, the Ki on Melatonin receptor [2] was determined as 263 nM. As to `COc1ccc2[nH]c(-c3ccccc3)c(CCNC(=O)C34C[C@H]5C[C@@H](C3)C[C@@H](C4)C5)c2c1`, in the assay listed under Xenopus laevis [1], the Response entry was “Agonist”. The molecule also yielded a Ki on Melatonin receptor [2] of 1100 nM. For `O=C(NCCc1c(-c2ccccc2)[nH]c2ccccc12)C1CCCC1`, the Response entry in the assay filed under Xenopus laevis [8] is “Antagonist”. The Ki at Melatonin receptor [2] stood at 633 nM.

Turning to `COc1ccc2[nH]c(-c3ccccc3)c(CCNC(=O)C3CCC3)c2c1`, the Response result in the assay listed under Xenopus laevis [1] is “Agonist”. The Ki on Melatonin receptor [2] was 2.7 nM. Regarding `O=C(NCCc1c(-c2ccccc2)[nH]c2ccccc12)C1CCCCC1`, in the assay filed under Xenopus laevis [8], the Response entry was “Antagonist”. On Melatonin receptor [2], this molecule yielded a Ki of 1550 nM. In turn, `O=C(NCCc1c(-c2ccccc2)[nH]c2ccccc12)C(F)(F)C(F)(F)F` gave a Ki at Melatonin receptor [2] of 6500 nM. In addition, the Response entry in the assay listed under Xenopus laevis [9] was “inactive”. Turning to `CC(=O)NCC(C)c1c(-c2ccccc2)n(C)c2ccccc12` (stereo not given), the Response result in the assay listed under Xenopus laevis [10] is “Agonist”. This molecule displayed a Ki on Melatonin receptor [2] of 5.9 nM. `O=C(NCCc1c(-c2ccccc2)[nH]c2ccccc12)C1CC1`: in the assay listed under Xenopus laevis [8], the Response entry is “Antagonist”. At Melatonin receptor [2], this molecule gave a Ki of 213 nM. Turning to `CCCC(=O)NCCc1c(-c2ccccc2)[nH]c2ccc(OC)cc12`, the Ki at Melatonin receptor [2] was found to be 0.0558 nM. For the molecule `CCC(=O)NCCc1c(-c2ccccc2)[nH]c2ccccc12`, the Response entry in the assay listed under Xenopus laevis [1] is “Agonist”. On Melatonin receptor [2], affinity was put at a Ki of 70 nM.

As for `CC(CNC(=O)C1CCC1)c1c(-c2ccccc2)n(C)c2ccccc12` (stereo not given), the Response result in the assay filed under Xenopus laevis [6] was “Antagonist”. Further, the Ki at Melatonin receptor [2] was 222 nM. Regarding `O=C(NCCc1c(-c2ccccc2)[nH]c2ccccc12)C12C[C@H]3C[C@@H](C1)C[C@@H](C2)C3`, in the assay listed under Xenopus laevis [4], the Response entry is “inactive”. The Ki on Melatonin receptor [2] stood at 1100 nM. On Melatonin receptor [2], `CC(Br)C(=O)NCCc1c(-c2ccccc2)[nH]c2ccccc12` (stereo not given) displayed an inhibition constant (Ki) of 1900 nM. In addition, the Response result in the assay listed under Xenopus laevis [11] was “inactive”. Regarding `Cn1c(-c2ccccc2)c(CCNC(=O)C2CCC2)c2ccccc21`, the Response result in the assay listed under Xenopus laevis [6] is “Antagonist”. At Melatonin receptor [2], this molecule had a Ki of 726 nM.

The values above are taken from ChEMBL document CHEMBL1128282 (J Med Chem, 1995).
